Laboratory results reported in patent publication US20230245725A1, “Means and Methods for the Prediction of Amyloid Core Sequences” (VIB VZW, priority 2020, published 2023).
Where two headings read alike, the source gives them in different places.

Key:
Format in all cases: physicochemical
[1] = pFTAA binding assay of synthetic peptides; settings: 200 μM peptide, rotation 5 days, room temperature; pFTAA 0.5 μM
Source text: (§1) In the interest of improving the current description of the familiar amyloidogenic protein dataset, we selected and synthesised a subset of 96 peptides corresponding to strong aggregation prone regions identified in these proteins by Cordax. Apart of prediction strength, the peptide screen was also selectively constructed to ensure broad sequence variability and a wide distribution on the proteins of the dataset, with a preference for longer entries defined by inadequate previous characterisation. Peptide sequences were cross-checked and filtered to exclude overlapping sequences with previously identified amyloid regions and WALTZ-DB (see Table 2). The remaining selection of 96 peptides were synthesized using standard solid phase synthesis and their amyloid-forming properties were initially examined using Thioflavin-T (Th-T) or pFTAA binding, following rotating incubation for 5 days at room temperature. The binding assays are complementary, as Th-T and pFTAA are opposingly charged molecules, which increases the amyloid identification rate by overcoming cases of dye-specific failure to bind to amyloid surfaces based on charge repulsion. Under these conditions, 66 peptides successfully bind the specific dyes (FIGS. 3a & 3b) by forming fibrils with typical amyloid morphologies and properties that were verified using transmission electron microscopy (FIG. 3c) and Congo red staining for selected cases (FIG. 3d). As these dyes are known to yield false negatives, in particular for short peptides, all dye-negative peptides were further investigated using electron microscopy. During this scan, we recovered 19 additional sequences that were capable of forming sparse amyloid-like fibrils with shorter lengths (see FIG. 8).
(§2) Peptides derived from the Cordax validation set were synthesized using an Intavis Multipep RSi solid phase peptide synthesis robot. Peptide purity (>90%) was evaluated using RP-HPLC purification protocols and peptides were stored as ether precipitates (−20° C.). Peptide stocks were initially treated with 1,1,1,3,3,3-hexafluoro-isopropanol (HFIP) (Merck), then dissolved in traces of dimethyl sulfoxide (DMSO) (Merck) (<5%), filtered through 0.2 μm filters and finally in milli-Q water to reach a final concentration of 200 μM or up to 1 mM for dye-negative peptides. Dithiothreitol (DTT) (1 mM) was included in solutions of peptides spanning cysteine or methionine residues. All peptides were incubated at room temperature for a period of 5 days on a rotating wheel.
(§3) Amyloid aggregation was monitored using fluorescent spectroscopy binding assays. Th-T (Sigma) or pFTAA (Ebba Biotech AB) was added in half-area black 96-well microplates (Corning, USA) at a final concentration of 25 μM and 0.5 μM, respectively. Fluorescence intensity was measured in replicates (n=6) using a PolarStar Optima and a FluoStar Omega plate reader (BMG Labtech, Germany), equipped with an excitation filter at 440 nm and emission filters at 480 nm and 510 nm, respectively.

[2] = Thioflavin-T binding assay of synthetic peptides; settings: 200 μM peptide, rotation 5 days, room temperature; Th-T 25 μM
Source text: as §1, §2, §3

[3] = Amyloid-forming properties of the peptide screen (overall call from Th-T, pFTAA, TEM)
Source text: as §1, with “8). […]” for “8).”
as §2, §3
(§4) Peptide solutions were incubated for 5 days at room temperature in order to form mature amyloid-like fibrils. Suspensions (5 μL) of each peptide solution were added on 400-mesh carbon-coated copper grids (Agar Scientific Ltd., England), following a glow-discharging step of 30 s to improve sample adsorption. Grids were washed with milli-Q water and negatively stained using uranyl acetate (2% w/v in milli-Q water). Grids were examined with a JEM-1400 120 kV transmission electron microscope (JEOL, Japan), operated at […].

[4] = Transmission electron microscopy of peptide fibrils
Source text: as §1, §4

[5] = amyloid-like fibrils after 5 days at room temperature

| Substance | pFTAA Binding [1] | Th-T Binding [2] | Amyloid ([3]; overall amyloid-forming call) | TEM [4, 5] | Amyloid [3] | TEM [4] |
| --- | --- | --- | --- | --- | --- | --- |
| IQVYSR | ● | ● | ● | ● |  |  |
| AEIEIE | ● | ● | ● | ● |  |  |
| FVIEEV | ● | ● | ● | ● |  |  |
| QVFVWV | ● | ● | ● | ● |  |  |
| YFTAIQ | ● | ● | ● |  |  |  |
| EDCFIL | ● | ● | ● |  |  |  |
| IGINIK |  |  | ● | ● |  |  |
| LLFKDS |  |  | ● | ● |  |  |
| MYVSEM | ● | ● | ● |  |  |  |
| MLHKEF |  | ● | ● |  |  |  |
| YIILYN | ● | ● | ● | ● |  |  |
| LNSVFK |  |  | ● | ● |  |  |
| AFFLFC | ● | ● | ● |  |  |  |
| AYVILK | ● |  | ● |  |  |  |
| TDVVFM | ● | ● | ● |  |  |  |
| INFEFS | ● | ● | ● |  |  |  |
| GWNIPM | ● |  | ● |  |  |  |
| GYTLFS |  |  | ● | ● |  |  |
| MSVSLV | ● | ● | ● |  |  |  |
| YFHARG |  |  | ● | ● |  |  |
| LLVYNK |  |  | ● | ● |  |  |

| Substance | pFTAA Binding [1] | Th-T Binding [2] | Amyloid ([3]; overall amyloid-forming call) | TEM [4, 5] | Amyloid [3] | TEM [4] |
| --- | --- | --- | --- | --- | --- | --- |
| SQFIKL |  |  | ● | ● |  |  |
| HYYAVA | ● |  | ● |  |  |  |
| INAWLF | ● | ● | ● |  |  |  |
| AAYLWV | ● | ● | ● | ● |  |  |
| DLVVFE | ● | ● | ● |  |  |  |
| MDKVER |  |  | ● | ● |  |  |
| LNLKLL | ● |  | ● |  |  |  |
| LQVDLG | ● | ● | ● |  |  |  |
| MVVEHP | ● |  | ● |  |  |  |
| FLGYFK |  |  | ● | ● |  |  |
| LIFMGH | ● | ● | ● |  |  |  |
| LVMELD | ● | ● | ● |  |  |  |
| MIIYKG | ● |  | ● |  |  |  |
| IFTVQL | ● | ● | ● | ● |  |  |
| LHCLRR | ● |  | ● |  |  |  |
| IGYNIK |  |  | ● | ● |  |  |
| FSFTIA | ● | ● | ● |  |  |  |
| NDAFVL | ● | ● | ● | ● |  |  |
| QVYYRP |  |  |  |  | ● | ● |
| ILLLFE | ● | ● | ● | ● |  |  |
| LSIWES | ● | ● | ● |  |  |  |

| Substance | pFTAA Binding [1] | Th-T Binding [2] | Amyloid ([3]; overall amyloid-forming call) | TEM [4, 5] | Amyloid [3] | TEM [4] |
| --- | --- | --- | --- | --- | --- | --- |
| VVVNKM | ● |  | ● |  |  |  |
| STVISY | ● | ● | ● | ● |  |  |
| VYVDVL | ● | ● | ● | ● |  |  |
| TIFLDF | ● |  | ● |  |  |  |
| IQIHHY |  |  | ● | ● |  |  |
| VNIELL | ● | ● | ● |  |  |  |
| GDVAFI | ● | ● | ● |  |  |  |
| IGVVGW | ● | ● | ● |  |  |  |
| IIYNWQ | ● | ● | ● | ● |  |  |
| SVDYEV | ● |  | ● |  |  |  |
| DCFEYV | ● | ● | ● |  |  |  |
| EVYKWT | ● |  | ● |  |  |  |
| LIVSIL | ● | ● | ● |  |  |  |
| VNFSEF | ● | ● | ● | ● |  |  |
| CEFLRK | ● |  | ● |  |  |  |
| FYAVRL |  |  | ● | ● |  |  |
| FEYVQL | ● | ● | ● |  |  |  |
| TKVIPY | ● |  | ● |  |  |  |
| VYTVFA | ● | ● | ● |  |  |  |
| VDMAMC | ● | ● | ● |  |  |  |
| GYLTIR |  |  | ● | ● |  |  |

| Substance | pFTAA Binding [1] | Th-T Binding [2] | Amyloid ([3]; overall amyloid-forming call) | TEM [4, 5] | Amyloid [3] | TEM [4] |
| --- | --- | --- | --- | --- | --- | --- |
| LYHLVT |  |  | ● | ● |  |  |
| GVIHYI |  |  | ● | ● |  |  |
| YVAGIT | ● | ● | ● |  |  |  |
| VHIVKL | ● |  | ● | ● |  |  |
| LYHGQT |  |  | ● | ● |  |  |
| SYVLQT | ● | ● | ● |  |  |  |
| TLFTMD |  |  | ● | ● |  |  |
| ASLTIL | ● | ● | ● | ● |  |  |
| MDVFMK | ● | ● | ● |  |  |  |
| FKVAIV | ● |  | ● |  |  |  |
| NLYEKT | ● |  | ● |  |  |  |
| YQLVLQ | ● | ● | ● | ● |  |  |
| MFSEFD | ● | ● | ● |  |  |  |
| LCSTFC | ● | ● | ● |  |  |  |
| SEFSKK | ● |  | ● |  |  |  |
| QIIEIE | ● | ● | ● |  |  |  |
| SNFLRA |  |  | ● | ● |  |  |
| MELIVS | ● | ● | ● |  |  |  |
| LLDNWD | ● |  | ● |  |  |  |
| GWFLGW |  | ● | ● |  |  |  |
